The record followed here is patent US7989449B2, “4,5-dihydro-oxazol-2-yl amine derivatives” (Hoffman-La Roche Inc., priority 2008, dated 2011).

Structures can show the parent of a compound that is named as a salt.

The target of this assay is T1, 6his-tagged full length BACE 1 from SF9 cells (Homo sapiens, UniProt P56817).
T1 construct: 6his-tagged full length BACE 1 from SF9 cells; made in house; host or cells: Sf9 insect cells
T1 sequence (P56817 46-501): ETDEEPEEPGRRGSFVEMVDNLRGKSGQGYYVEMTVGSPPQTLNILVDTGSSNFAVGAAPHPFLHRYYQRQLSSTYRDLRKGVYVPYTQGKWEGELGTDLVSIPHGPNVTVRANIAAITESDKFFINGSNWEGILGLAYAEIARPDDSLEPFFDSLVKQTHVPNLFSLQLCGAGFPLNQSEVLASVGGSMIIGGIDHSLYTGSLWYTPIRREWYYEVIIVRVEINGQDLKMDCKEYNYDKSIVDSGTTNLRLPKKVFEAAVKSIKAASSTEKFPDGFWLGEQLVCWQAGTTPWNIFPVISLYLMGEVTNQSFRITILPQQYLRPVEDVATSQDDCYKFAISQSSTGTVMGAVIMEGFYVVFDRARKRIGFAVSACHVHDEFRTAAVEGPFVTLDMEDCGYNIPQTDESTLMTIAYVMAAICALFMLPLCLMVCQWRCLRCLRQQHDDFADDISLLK
The assay can be described thus: BACE1 MR121 protease assay. The class given is biochemical. Particulars: 30 nM 6his-BACE-1, 300 nM substrate peptide WSEVNLDAEFRC-MR121, Na-acetate pH 4.0, fluorescence. As for the experimental part: Assay plate: 384 well microtiter plate, Corning clear, flat bottom, non binding surface
Assaybuffer: 100 mM Na-acetate pH 4.0, 20 mM EDTA, 0.05% BSA
BACE-1: 6his-tagged full length BACE 1 from SF9 cells
Substrate peptide: WSEVNLDAEFRC-MR121
BACE1 MR121 protease assay
39 μl of a 38 nM 6his-BACE-1 solution in assay buffer (final conc. in the assay: 30 nM) were pipetted into the assay plate. 1 μl of a concentration of a potential inhibitor in dimethylsulfoxide was added to the enzyme and incubated for 10 min. Finally, 10 μl of a 1.5 μM solution of the substrate in assay buffer (final conc. in the assay: 300 nM) was added to start the enzymatic reaction. After strong mixing for 2 min the enzymatic reaction was followed by measuring the fluorescence intensity every two minutes for 15 min on a suitable fluorescence reader. […] The slope was calculated from the linear part of the kinetic as a measure of the activity of BACE-1. A range of concentrations of the potential inhibitor was used to generate data for calculating the concentration of inhibitor resulting in 50% of the effect (e.g. IC50, the concentration of the compound inhibiting the BACE-1 activity by 50%).
As for `CCOCc1cc(Nc2ccccc2)cc(C2(c3ccc(OC)c(C)c3)COC(N)=N2)c1` (racemic) [Example 195, (RS)-4-(3-Ethoxymethyl-5-phenylamino-phenyl)-4-(4-methoxy-3-methyl-phenyl)-4,5-dihydro-oxazol-2-ylamine], inhibition was half-maximal at 960 nM (IC50).

`COc1cncc(-c2cc(C3(c4ccc(OC)c(C)c4)COC(N)=N3)ccc2F)c1` (racemic) [Example 51, (RS)-4-[4-Fluoro-3-(5-methoxy-pyridin-3-yl)-phenyl]-4-(4-methoxy-3-methyl-phenyl)-4,5-dihydro-oxazol-2-ylamine formate] registered an IC50 of 120 nM.

`Cc1cc(C2(c3ccc(F)c(-c4cncc(Cl)c4)c3)COC(N)=N2)ccc1OC(F)F` (racemic) [Example 205, (RS)-4-[3-(5-Chloro-pyridin-3-yl)-4-fluoro-phenyl]-4-(4-difluoromethoxy-3-methyl-phenyl)-4,5-dihydro-oxazol-2-ylamine formate] came in with an IC50 of 90 nM.

`NC1=NC(c2ccc(OC(F)F)cc2)(c2cccc(-c3cncnc3)c2)CO1` (racemic) [Example 86, (RS)-4-(4-Difluoromethoxy-phenyl)-4-(3-pyrimidin-5-yl-phenyl)-4,5-dihydro-oxazol-2-ylamine] returned an IC50 of 410 nM.

On to `COc1ccc(C2(c3cccc(-c4cncnc4)c3)COC(N)=N2)cc1Cl` (racemic) [Example 73, (RS)-4-(3-Chloro-4-methoxy-phenyl)-4-(3-pyrimidin-5-yl-phenyl)-4,5-dihydro-oxazol-2-ylamine], for which the IC50 was 840 nM.

For the compound `Cc1cc(C2(c3cccc(-c4cncc(F)c4)c3)COC(N)=N2)ccc1OC(F)F` (racemic) [Example 102, (RS)-4-(4-Difluoromethoxy-3-methyl-phenyl)-4-[3-(5-fluoro-pyridin-3-yl)-phenyl]-4,5-dihydro-oxazol-2-ylamine formate], 210 nM corresponded to half-maximal inhibition (IC50).

On to `COc1ccc(C2(c3cccc(-c4cccc(Cl)c4)c3)COC(N)=N2)cc1` (racemic) [Example 14, (RS)-4-(3′-Chloro-biphenyl-3-yl)-4-(4-methoxy-phenyl)-4,5-dihydro-oxazol-2-ylamine formate], for which the IC50 was found to be 810 nM.

As for `Cc1cc([C@]2(c3cccc(-c4cncc(Cl)c4)c3)COC(N)=N2)ccc1OC(F)F` [Example 94A, (R)-4-[3-(5-Chloro-pyridin-3-yl)-phenyl]-4-(4-difluoromethoxy-3-methyl-phenyl)-4,5-dihydro-oxazol-2-ylamine], 40 nM corresponded to half-maximal inhibition (IC50).

On to `COc1ccc(F)c(-c2cc(C3(c4ccc(OC)c(Cl)c4)COC(N)=N3)ccc2F)c1` (racemic) [Example 114, (RS)-4-(3-Chloro-4-methoxy-phenyl)-4-(6,2′-difluoro-5′-methoxy-biphenyl-3-yl)-4,5-dihydro-oxazol-2-ylamine formate], for which the IC50 was found to be 660 nM.

For the compound `Cc1cc(C2(c3cccc(-c4cncc(Cl)n4)c3)COC(N)=N2)ccc1OC(F)F` (racemic) [Example 202, (RS)-4-[3-(6-Chloro-pyrazin-2-yl)-phenyl]-4-(4-difluoromethoxy-3-methyl-phenyl)-4,5-dihydro-oxazol-2-ylamine formate], the IC50 amounted to 440 nM.

For the compound `Cc1cc(OC(F)F)ccc1C1(c2cccc(-c3cncc(Cl)c3)c2)COC(N)=N1` (racemic) [Example 201, (RS)-4-[3-(5-Chloro-pyridin-3-yl)-phenyl]-4-(4-difluoromethoxy-2-methyl-phenyl)-4,5-dihydro-oxazol-2-ylamine formate], the IC50 worked out at 160 nM.

Compound `COc1ccc(C2(c3ccc(F)c(-c4cncc(F)c4)c3)COC(N)=N2)cc1C` (racemic) [Example 52, (RS)-4-[4-Fluoro-3-(5-fluoro-pyridin-3-yl)-phenyl]-4-(4-methoxy-3-methyl-phenyl)-4,5-dihydro-oxazol-2-ylamine formate] returned an IC50 of 190 nM.

For `Cc1cc(C2(c3cccc(-c4cccnc4F)c3)COC(N)=N2)ccc1OC(F)F` (racemic) [Example 98, (RS)-4-(4-Difluoromethoxy-3-methyl-phenyl)-4-[3-(2-fluoro-pyridin-3-yl)-phenyl]-4,5-dihydro-oxazol-2-ylamine formate], half-maximal inhibition (IC50) was put at 150 nM.

In turn, `CCOc1cc(Nc2ccccc2)cc(C2(c3ccc(OC(F)F)c(C)c3)COC(N)=N2)c1` (racemic) [Example 192] gave a 50% inhibitory concentration (IC50) of 660 nM.

`COc1ccc(C2(c3ccc(F)c(-c4cc(C)cnc4F)c3)COC(N)=N2)cc1Cl` (racemic) [Example 113, (RS)-4-(3-Chloro-4-methoxy-phenyl)-4-[4-fluoro-3-(2-fluoro-5-methyl-pyridin-3-yl)-phenyl]-4,5-dihydro-oxazol-2-ylamine]: it took 730 nM to reach half-maximal inhibition (IC50).

`COc1ccc(C2(c3ccc(F)c(-c4ccc(F)nc4)c3)COC(N)=N2)cc1C` (racemic) [Example 25, (RS)-4-[4-Fluoro-3-(6-fluoro-pyridin-3-yl)-phenyl]-4-(4-methoxy-3-methyl-phenyl)-4,5-dihydro-oxazol-2-ylamine formate] yielded an IC50 of 945 nM.

With `COc1ccc(C2(c3cccc(-c4cccc(OC)c4)c3)COC(N)=N2)cc1` (racemic) [Example 15, (RS)-4-(3′-Methoxy-biphenyl-3-yl)-4-(4-methoxy-phenyl)-4,5-dihydro-oxazol-2-ylamine formate], the IC50 came to 820 nM.

Regarding `Cc1cc(C2(c3cccc(-c4cncc(C#N)c4)c3)COC(N)=N2)ccc1OC(F)F` (racemic) [Example 203, (RS)-5-{3-[2-Amino-4-(4-difluoromethoxy-3-methyl-phenyl)-4,5-dihydro-oxazol-4-yl]-phenyl}-nicotinonitrile formate], half-maximal inhibition (IC50) was put at 110 nM.

Regarding `COc1ccc(C2(c3cccc(-c4cccc(Cl)c4)c3)COC(N)=N2)cc1` (racemic) [Example 39, (RS)-4-(3′-Chloro-biphenyl-3-yl)-4-(4-methoxy-phenyl)-4,5-dihydro-oxazol-2-ylamine formate], the midpoint of inhibition, the IC50, lay at 810 nM.

`COCCc1cc(Nc2ccccc2)cc(C2(c3ccc(OC)c(C)c3)COC(N)=N2)c1` (racemic) [Example 197, (RS)-4-[3-(2-Methoxy-ethyl)-5-phenylamino-phenyl]-4-(4-methoxy-3-methyl-phenyl)-4,5-dihydro-oxazol-2-ylamine] yielded an IC50 of 530 nM.

`COc1cncc(-c2cccc(C3(c4ccc(OC)c(C)c4)COC(N)=N3)c2)c1` (racemic) [Example 47, (RS)-4-(4-Methoxy-3-methyl-phenyl)-4-[3-(5-methoxy-pyridin-3-yl)-phenyl]-4,5-dihydro-oxazol-2-ylamine formate] yielded an IC50 of 400 nM.

Compound `COc1cncc(-c2cccc(C3(c4ccc(OC(F)F)c(C)c4)COC(N)=N3)c2)c1` (racemic) [Example 101, (RS)-4-(4-Difluoromethoxy-3-methyl-phenyl)-4-[3-(5-methoxy-pyridin-3-yl)-phenyl]-4,5-dihydro-oxazol-2-ylamine formate] yielded an IC50 of 60 nM.

Consider `COc1ccc(C2(c3cccc(-c4cncc(F)c4)c3)COC(N)=N2)cc1Cl` (racemic) [Example 78, (RS)-4-(3-Chloro-4-methoxy-phenyl)-4-[3-(5-fluoro-pyridin-3-yl)-phenyl]-4,5-dihydro-oxazol-2-ylamine], for which the IC50 stood at 640 nM.

The compound `Cc1cc(OC(F)F)ccc1C1(c2cccc(-c3cccc(Cl)c3)c2)COC(N)=N1` (racemic) [Example 149, (RS)-4-(3′-Chloro-biphenyl-3-yl)-4-(4-difluoromethoxy-2-methyl-phenyl)-4,5-dihydro-oxazol-2-ylamine formate] returned an IC50 of 960 nM.

As for `Cc1cc(C2(c3cccc(-c4cncc(Cl)c4)c3)COC(N)=N2)ccc1OC(F)F` (racemic) [Example 94, (RS)-4-[3-(5-Chloro-pyridin-3-yl)-phenyl]-4-(4-difluoromethoxy-3-methyl-phenyl)-4,5-dihydro-oxazol-2-ylamine formate], the IC50 was 60 nM.

Consider `Cc1cncc(-c2cccc(C3(c4ccc(OC(F)F)c(C)c4)COC(N)=N3)c2)c1` (racemic) [Example 103, (RS)-4-(4-Difluoromethoxy-3-methyl-phenyl)-4-[3-(5-methyl-pyridin-3-yl)-phenyl]-4,5-dihydro-oxazol-2-ylamine formate], for which the midpoint of inhibition, the IC50, lay at 320 nM.

`Cc1cc(C2(c3cccc(-c4cccnc4)c3)COC(N)=N2)ccc1OC(F)F` (racemic) [Example 97, (RS)-4-(4-Difluoromethoxy-3-methyl-phenyl)-4-(3-pyridin-3-yl-phenyl)-4,5-dihydro-oxazol-2-ylamine formate] showed an IC50 of 120 nM.

Compound `COc1cncc(-c2cc(C3(c4ccc(OC(F)F)c(C)c4)COC(N)=N3)ccc2F)c1` (racemic) [Example 121, (RS)-4-(4-Difluoromethoxy-3-methyl-phenyl)-4-[4-fluoro-3-(5-methoxy-pyridin-3-yl)-phenyl]-4,5-dihydro-oxazol-2-ylamine formate] had an IC50 of 50 nM.

The compound `COc1ccc(C2(c3ccc(F)c(-c4cncc(Cl)c4)c3)COC(N)=N2)cc1Cl` (racemic) [Example 108, (RS)-4-(3-Chloro-4-methoxy-phenyl)-4-[3-(5-chloro-pyridin-3-yl)-4-fluoro-phenyl]-4,5-dihydro-oxazol-2-ylamine formate] gave an IC50 of 290 nM.
